This is an account of results in paper PMC8348983 (International Journal of Molecular Sciences, 2021).

Structures are written as SMILES. Entries after “also recorded” stand apart in the source; their conditions may differ. Where two headings read alike, the source gives them in different places.

In assay [1] the target is T1, human recombinant AChE (Homo sapiens, UniProt P22303). The assay can be described thus: biochemical. The class given is biochemical. Particulars: for IC50: mean ± SEM of three independent measurements, each in triplicate, read-out: IC50, hAChE ± SEM; for inhibition at 100 µM: tested at 100 µM compound concentration, read-out: %Inhibition hAChE ± SEM.
A further assay deals with T2, human plasma BChE (Homo sapiens, UniProt P06276).
T2 construct: was used as a source of BChE and was prepared from heparinized human blood; from tissue; host or cells: human plasma from heparinized human blood
The assay can be described thus: biochemical. It is filed as biochemical. Particulars: for IC50: mean ± SEM of three independent measurements, each in triplicate, read-out: IC50, hBuChE ± SEM; for SI for hBuChE: ratio hAChE IC50/hBuChE IC50; for inhibition at 100 µM: tested at 100 µM compound concentration, read-out: % Inhibition hBuChE ± SEM.

The target in assay [2] is POP (prolyloligopeptidase) (Homo sapiens, UniProt P48147). Description: POP inhibition assay. Particulars: bounds marked f: highest tested concentration due to low solubility in buffer; read-out: IC50, POP ± SEM. It is filed as biochemical. As to the method: The previously applied procedure was used. Detailed description of the assay can be found in Supplementary Materials.
POP (EC 3.4.21.26) was dissolved in phosphate-buffered saline (PBS; 0.01 M Na/K phosphate buffer, […]
The assay was performed in standard polystyrene 96-well microplates with a flat and clear bottom.
Stock solutions of tested compounds were prepared in DMSO (10 mM). Dilutions (10−3 to 10−7 M) were prepared from the stock solution with deionized H2O; the control was performed with the same DMSO concentration. POP substrate, (Z)-Gly-Pro-p-nitroanilide, was dissolved in 50% 1,4-dioxane (5 mM). For each reaction, PBS (170 μL), tested compound (5 μL), and POP (5 μL) were incubated for 5 min at 37 °C. Then, substrate (20 μL) was added, and the microplate was incubated for 30 min at 37 °C. The formation of p-nitroanilide, directly proportional to the POP activity, was measured […]
Synergy 2, BioTek Instruments, Winooski, VT). The inhibition potency of tested compounds was calculated by nonlinear regression analysis and was expressed as an IC50 value (concentration of inhibitor which causes 50% POP inhibition). […]

In assay [3] the target is T1, human recombinant AChE. Set-up: method as in PMID 32455879. Particulars: template alkaloids, Figure 1; read-out: IC50,hAChE; cited from earlier work.

Sequence of POP (prolyloligopeptidase) (P48147 whole entry): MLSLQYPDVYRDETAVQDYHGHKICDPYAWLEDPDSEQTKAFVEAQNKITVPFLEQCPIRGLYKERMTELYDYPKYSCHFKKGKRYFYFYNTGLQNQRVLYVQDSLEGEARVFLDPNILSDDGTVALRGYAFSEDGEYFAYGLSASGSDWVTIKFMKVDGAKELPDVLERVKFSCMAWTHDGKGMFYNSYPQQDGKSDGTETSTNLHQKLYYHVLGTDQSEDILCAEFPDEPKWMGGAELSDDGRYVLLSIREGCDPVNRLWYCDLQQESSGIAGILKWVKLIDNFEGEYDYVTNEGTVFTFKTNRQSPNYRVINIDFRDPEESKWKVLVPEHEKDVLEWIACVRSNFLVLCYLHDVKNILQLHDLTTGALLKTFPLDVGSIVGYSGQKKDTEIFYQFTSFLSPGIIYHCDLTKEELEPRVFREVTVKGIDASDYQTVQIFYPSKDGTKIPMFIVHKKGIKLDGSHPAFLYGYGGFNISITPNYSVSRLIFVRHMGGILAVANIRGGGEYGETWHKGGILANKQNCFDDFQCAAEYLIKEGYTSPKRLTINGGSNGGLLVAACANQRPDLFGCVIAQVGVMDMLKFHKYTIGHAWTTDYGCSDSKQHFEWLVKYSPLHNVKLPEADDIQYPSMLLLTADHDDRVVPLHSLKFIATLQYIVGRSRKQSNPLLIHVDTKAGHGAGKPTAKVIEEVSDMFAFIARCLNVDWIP
T2 sequence (P06276 29-602): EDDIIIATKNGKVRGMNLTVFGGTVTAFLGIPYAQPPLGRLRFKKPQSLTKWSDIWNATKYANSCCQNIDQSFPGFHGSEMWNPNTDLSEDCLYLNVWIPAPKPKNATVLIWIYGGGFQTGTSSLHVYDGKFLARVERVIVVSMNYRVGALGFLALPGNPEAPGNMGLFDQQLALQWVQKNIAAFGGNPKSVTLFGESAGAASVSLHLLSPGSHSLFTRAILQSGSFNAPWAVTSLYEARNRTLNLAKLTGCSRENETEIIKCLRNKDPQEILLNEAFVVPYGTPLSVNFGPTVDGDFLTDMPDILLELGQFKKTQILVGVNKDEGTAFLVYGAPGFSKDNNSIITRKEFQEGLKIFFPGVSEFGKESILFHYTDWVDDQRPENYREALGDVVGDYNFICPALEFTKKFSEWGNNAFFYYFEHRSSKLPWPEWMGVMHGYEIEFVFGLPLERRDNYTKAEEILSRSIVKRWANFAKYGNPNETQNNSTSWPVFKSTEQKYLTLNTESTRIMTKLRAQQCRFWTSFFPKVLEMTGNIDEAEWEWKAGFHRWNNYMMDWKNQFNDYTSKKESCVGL
T1 sequence (P22303 32-614): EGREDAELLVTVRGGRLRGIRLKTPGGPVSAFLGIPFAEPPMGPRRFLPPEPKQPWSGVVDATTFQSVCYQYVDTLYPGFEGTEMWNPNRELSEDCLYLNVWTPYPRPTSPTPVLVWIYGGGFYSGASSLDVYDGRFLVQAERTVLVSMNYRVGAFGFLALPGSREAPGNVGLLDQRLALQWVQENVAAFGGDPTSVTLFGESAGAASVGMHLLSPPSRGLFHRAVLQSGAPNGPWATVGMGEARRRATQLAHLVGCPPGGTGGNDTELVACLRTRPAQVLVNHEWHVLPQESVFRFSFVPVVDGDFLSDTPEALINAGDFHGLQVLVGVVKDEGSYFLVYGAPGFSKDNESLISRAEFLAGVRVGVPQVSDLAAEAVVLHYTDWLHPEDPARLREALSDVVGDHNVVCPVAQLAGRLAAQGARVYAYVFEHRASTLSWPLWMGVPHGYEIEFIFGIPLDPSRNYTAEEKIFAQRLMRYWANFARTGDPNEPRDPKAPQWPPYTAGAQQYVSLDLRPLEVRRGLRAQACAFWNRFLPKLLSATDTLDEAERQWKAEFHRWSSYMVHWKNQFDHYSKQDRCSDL

In the case of `COc1cc(CNCCc2ccc(O)cc2)ccc1OCc1ccccc1` [Compound 1, N-(4-benzyloxy-3-methoxybenzyl)-2-(4-hydroxyphenyl)ethan-1-amine], the IC50 is greater than 100 µM at human recombinant AChE [1], 360 ± 30 nM at human plasma BChE and 186 ± 14 µM in assay [2]. The inhibition at 100 µM was 30.4 ± 2.1% on human recombinant AChE [1] and 98.7 ± 0.3% at human plasma BChE. In addition, the “SI for hBuChE” value at human plasma BChE is greater than 277.

As to `COc1ccc(CNCCc2ccc(O)cc2)cc1OCc1ccccc1` [Compound 2, N-(3-benzyloxy-4-methoxybenzyl)-2-(4-hydroxyphenyl)ethan-1-amine], at human recombinant AChE [1], the IC50 was greater than 100 µM and the inhibition at 100 µM was found to be 35.8 ± 1.2%. Moreover, at human plasma BChE, the half-inhibitory concentration (IC50) turned out to be 290 ± 20 nM, the “SI for hBuChE” value is reported as greater than 348 and the inhibition at 100 µM came out at 97.7 ± 0.5%. Further, the half-maximal inhibitory concentration (IC50) in assay [2] was greater than 79 µM.

For the compound `C=CCN(CCc1ccc(O)cc1)Cc1ccc(OCc2ccccc2)c(OC)c1` [Compound 3, N-allyl-N-(4-benzyloxy-3-methoxybenzyl)-2-(4-hydroxyphenyl)ethan-1-amine], the values for the IC50 (at human recombinant AChE [1]; on human plasma BChE; in assay [2]) were greater than 100 µM, 610 ± 40 nM and greater than 200 µM, respectively. Besides, the inhibition at 100 µM at human recombinant AChE [1] stood at 20.8 ± 0.9%; on human plasma BChE, 96.8 ± 1.1%. In addition, at human plasma BChE, the “SI for hBuChE” value is listed as greater than 163.

`C=CCN(CCc1ccc(O)cc1)Cc1ccc(OC)c(OCc2ccccc2)c1` [Compound 4, N-allyl-N-(3-benzyloxy-4-methoxybenzyl)-2-(4-hydroxyphenyl)ethan-1-amine]: the values for the concentration for half-maximal inhibition (IC50) (at human recombinant AChE [1]; on human plasma BChE; in assay [2]) were greater than 100 µM, 250 ± 10 nM and greater than 79 µM, respectively. The inhibition at 100 µM amounted to 45.2 ± 2.4% on human recombinant AChE [1] and 97.9 ± 0.6% on human plasma BChE. At human plasma BChE, the “SI for hBuChE” value is reported as greater than 394.

On to `C=CCOc1ccc(CCN(CC=C)Cc2ccc(OCc3ccccc3)c(OC)c2)cc1` [Compound 5, N-allyl-N-(4-benzyloxy-3-methoxybenzyl)-2-(4-allyloxyphenyl)ethan-1-amine], for which, on human recombinant AChE [1], the IC50 is greater than 100 µM and the inhibition at 100 µM was found to be 3.4 ± 0.5%. Also, the “hAChE inhibition potency (in words)” value on human recombinant AChE [1] (screening at 100 µM) is “no inhibition potency”. On human plasma BChE, the 50% inhibitory concentration (IC50) is greater than 100000 nM and the inhibition at 100 µM is 38.9 ± 0.9%. The “hBuChE inhibition potency (in words)” value at human plasma BChE (screening at 100 µM) was “no inhibition potency; also recorded: inactive”.

`COc1cc(CNCCc2ccccc2)ccc1OCc1ccccc1` [Compound 7, N-(4-benzyloxy-3-methoxybenzyl)-2-phenylethan-1-amine]: on human recombinant AChE [1], the IC50 is greater than 100 µM and the inhibition at 100 µM stood at 23.4 ± 2.5%. In addition, on human plasma BChE, the half-inhibitory concentration (IC50) amounted to 1280 ± 50 nM, the “SI for hBuChE” value is recorded as greater than 78 and the inhibition at 100 µM stood at 94.5 ± 0.9%.

On to `COc1ccc(CNCCc2ccccc2)cc1OCc1ccccc1` [Compound 8, N-(3-benzyloxy-4-methoxybenzyl)-2-phenylethan-1-amine], for which, at human recombinant AChE [1], the IC50 was greater than 100 µM and the inhibition at 100 µM was 12.6 ± 0.5%. For the same compound, on human plasma BChE, the IC50 was 1100 ± 50 nM, the “SI for hBuChE” value is on record as greater than 90 and the inhibition at 100 µM was 96.6 ± 0.4%.

Regarding `C=CCN(CCc1ccccc1)Cc1ccc(OCc2ccccc2)c(OC)c1` [Compound 9, N-allyl-N-(4-benzyloxy-3-methoxybenzyl)-2-phenylethan-1-amine], on human recombinant AChE [1], the half-maximal inhibitory concentration (IC50) is greater than 100 µM and the inhibition at 100 µM worked out at 18.8 ± 1.9%. On human plasma BChE, the IC50 amounted to 5190 ± 280 nM, the “SI for hBuChE” value is greater than 19 and the inhibition at 100 µM was 74.9 ± 2.4%.

With `C=CCN(CCc1ccccc1)Cc1ccc(OC)c(OCc2ccccc2)c1` [Compound 10, N-allyl-N-(3-benzyloxy-4-methoxybenzyl)-2-phenylethan-1-amine], at human recombinant AChE [1], the half-maximal inhibitory concentration (IC50) was found to be 21.5 µM and the inhibition at 100 µM amounted to 72.4 ± 1.1%. For the same compound, on human plasma BChE, the IC50 is 1170 ± 40 nM, the “SI for hBuChE” value is 18 and the inhibition at 100 µM worked out at 92 ± 2.4%.

On to `COc1ccc(CCNCc2ccc(OCc3ccccc3)c(OC)c2)cc1` [Compound 11, {[4-(benzyloxy)-3-methoxyphenyl]methyl}[2-(4-methoxyphenyl)ethyl]amine], for which, on human recombinant AChE [1], the 50% inhibitory concentration (IC50) is greater than 100 µM and the inhibition at 100 µM came to 27.9 ± 0.7%. Further, at human plasma BChE, the IC50 came out at 2390 ± 270 nM, the “SI for hBuChE” value is greater than 41 and the inhibition at 100 µM is 93.5 ± 0.3%.

As to `COc1ccc(CCNCc2ccc(OC)c(OCc3ccccc3)c2)cc1` [Compound 12, N-(3-benzyloxy-4-methoxybenzyl)-2-(4-methoxyphenyl)ethan-1-amine], at human recombinant AChE [1], the IC50 is greater than 100 µM and the inhibition at 100 µM was 0%. At human plasma BChE, the IC50 worked out at 1120 ± 110 nM, the “SI for hBuChE” value is reported as greater than 89 and the inhibition at 100 µM is 94.6 ± 0.6%.

Consider `C=CCN(CCc1ccc(OC)cc1)Cc1ccc(OCc2ccccc2)c(OC)c1` [Compound 13, N-allyl-N-(4-benzyloxy-3-methoxybenzyl)-2-(4-methoxyphenyl)ethan-1-amine], for which, on human recombinant AChE [1], the half-maximal inhibitory concentration (IC50) was greater than 100 µM and the inhibition at 100 µM worked out at 32.7 ± 1.6%. Besides, on human plasma BChE, the IC50 was determined as 2720 ± 500 nM, the “SI for hBuChE” value is greater than 37 and the inhibition at 100 µM is 90.9 ± 1.5%.

With `C=CCN(CCc1ccc(OC)cc1)Cc1ccc(OC)c(OCc2ccccc2)c1` [Compound 14, N-allyl-N-(3-benzyloxy-4-methoxybenzyl)-2-(4-methoxyphenyl)ethan-1-amine], on human recombinant AChE [1], the 50% inhibitory concentration (IC50) was 37.7 µM and the inhibition at 100 µM is 60.9 ± 0.4%. At human plasma BChE, the IC50 amounted to 380 ± 10 nM, the “SI for hBuChE” value is recorded as 98 and the inhibition at 100 µM worked out at 95.8 ± 0.9%.

For the compound `CCOc1cc(CNCCc2ccc(O)cc2)ccc1OC` [Compound 15, N-(3-ethoxy-4-methoxybenzyl)-2-(4-hydroxyphenyl)ethan-1-amine], on human recombinant AChE [1], the half-inhibitory concentration (IC50) is greater than 100 µM and the inhibition at 100 µM worked out at 25.8 ± 1.3%. Further, on human plasma BChE, the 50% inhibitory concentration (IC50) came out at 15100 ± 2340 nM, the “SI for hBuChE” value is reported as greater than 6 and the inhibition at 100 µM came to 75.3 ± 0.6%.

For the compound `C=CCN(CCc1ccc(O)cc1)Cc1ccc(OC)c(OCC)c1` [Compound 16, N-allyl-N-(3-ethoxy-4-methoxybenzyl)-2-(4-hydroxyphenyl)ethan-1-amine], on human recombinant AChE [1], the IC50 is greater than 100 µM and the inhibition at 100 µM was determined as 28.3 ± 1.1%. Besides, on human plasma BChE, the 50% inhibitory concentration (IC50) turned out to be 1210 ± 80 nM, the “SI for hBuChE” value is greater than 82 and the inhibition at 100 µM turned out to be 91.7 ± 0.4%.

`C=CCOc1ccc(CCN(CC=C)Cc2ccc(OC)c(OCC)c2)cc1` [Compound 17, N-allyl-N-(3-ethoxy-4-methoxybenzyl)-2-(4-allyloxyphenyl)ethan-1-amine]: the IC50 at human recombinant AChE [1] is greater than 100 µM; at human plasma BChE, 9890 ± 1370 nM. The inhibition at 100 µM is 29.3 ± 3.9% at human recombinant AChE [1] and 77 ± 1% on human plasma BChE.

On to `CCOc1cc(CNCCc2ccccc2)ccc1OC` [Compound 18, N-(3-ethoxy-4-methoxybenzyl)-2-phenylethan-1-amine], for which, at human recombinant AChE [1], the concentration for half-maximal inhibition (IC50) is greater than 100 µM and the inhibition at 100 µM came out at 0%. In addition, at human plasma BChE, the IC50 came to 41100 ± 2600 nM, the “SI for hBuChE” value is listed as greater than 2 and the inhibition at 100 µM was 60 ± 1.6%.

For `C=CCN(CCc1ccccc1)Cc1ccc(OC)c(OCC)c1` [Compound 19, N-allyl-N-(3-ethoxy-4-methoxybenzyl)-2-phenylethan-1-amine], on human recombinant AChE [1], the IC50 is greater than 100 µM and the inhibition at 100 µM was found to be 5.9 ± 2.1%. Moreover, at human plasma BChE, the half-inhibitory concentration (IC50) was found to be 4630 ± 480 nM, the “SI for hBuChE” value is given as greater than 22 and the inhibition at 100 µM was 80.2 ± 0.2%.

As to `CCOc1cc(CN(CCc2ccccc2)Cc2ccccc2)ccc1OC` [Compound 20, N-benzyl-N-(3-ethoxy-4-methoxybenzyl)-2-phenylethan-1-amine], on human recombinant AChE [1], the IC50 is greater than 100 µM and the inhibition at 100 µM is 49.5 ± 0.8%. In addition, at human plasma BChE, the half-inhibitory concentration (IC50) is 690 ± 30 nM, the “SI for hBuChE” value was greater than 145 and the inhibition at 100 µM came out at 82.5 ± 1%.

As for `COc1cc(CN(C)CCc2ccc(O)cc2)c(-c2cccc3c2N(C)CC3)cc1OC` [carltonine A], the IC50 at human recombinant AChE [3] is greater than 100 µM.

Regarding `CN(CCc1ccc(O)cc1)Cc1cc2c(cc1-c1cccc3c1N(C)CC3)OCO2` [carltonine B], the 50% inhibitory concentration (IC50) on human recombinant AChE [3] was greater than 100 µM.
